Consider three compounds from article PMC8126888 (RSC Medicinal Chemistry, 2020).

As usually defined, the microsomal CLint is the rate of metabolic loss divided by the concentration. The low end stands for greater metabolic stability, the high end for faster metabolism. The term chromatographic logD denotes lipophilicity estimated from chromatographic retention. The term CC50 denotes the concentration at which the toxic effect on the cells reaches its halfway point.

Structures are written as SMILES. Like-named read-outs stand apart in the source and are kept apart here. Where only a bound is given, the exact number is not on record here.

The nature of data set [1]: in vitro. The settings on record: human, microsomes, pH 7.4, Microsome Clint Human, intrinsic in vitro clearance, liver microsomes.
Data set [2] concerns primary peritoneal mouse macrophages (PMM). Put plainly: cells. The settings on record: Macrophage, read-out: PMM pIC50 (converted).
Data set [3] is described as follows: in vitro. The settings on record: mouse, microsomes, pH 7.4, Microsome Clint Mouse, intrinsic in vitro clearance, liver microsomes. (In general: Liver microsomes are vesicles of endoplasmic reticulum, rich in cytochrome P450 enzymes.)
For data set [4] the following is noted: metabolite ID, peak area of substrate or metabolite.
Data set [5] has as its system Leishmania infantum (MHOM/MA/67/ITMAP-263) intracellular amastigotes in THP-1. Kind of data set: microbe, parasite or virus in culture. The settings on record: THP-1, 120 h, read-out: Intracellular activity pIC50 L. inf. in THP-1 (converted).
For data set [6] the following is noted: metabolite ID, peak area of substrate or metabolite. The source holds these as a separate data set.
Data set [7] in a line: in vitro. The settings on record: human, PMA-differentiated THP-1 cells.
For data set [8], the system named is Leishmania infantum MHOM/MA(BE)/67/ITMAP263 intracellular amastigotes. Put plainly: microbe, parasite or virus in culture. The settings on record: Macrophage, in Mus musculus, read-out: L. inf. pIC50, intracellular amastigotes in PMM (converted), geometric mean of a minimum of two experiments ± standard error.
A short description of another data set: physchem. The conditions noted are these: HPLC, Ascentis Express RP Amide column, pH 7.4, elog D, HPLC measured log D, pH 7.4.
Data set [9] has as its system Trypanosoma cruzi, Tulahuen CL2, beta-galactosidase strain. The conditions noted are these: read-out: T. cruzi Tulahuen C4 (LacZ) IC50.
The test system of data set [10] is primary peritoneal mouse macrophages (PMM). The settings on record: PMM IC50 / L. infantum IC50.
In data set [11] the test system is Leishmania infantum MHOM/MA(BE)/67/ITMAP263 intracellular amastigotes.
Data set [12] deals with primary peritoneal mouse macrophages (PMM). Put plainly: Cytotoxicity to PMM (microscopic scoring within susceptibility assay). The settings on record: Swiss, mouse.
The conditions of data set [13]: human liver microsomes.
The conditions of data set [14]: pH 7.4.
Another data set concerns MRC-5SV2 cells. Put plainly: Cytotoxicity assay on MRC-5SV2 cells (resazurin). The settings on record: human, 3 days. (In general: Alamar Blue is a resazurin reagent that responds to reducing activity.)
For data set [15] the following is noted: mouse liver microsomes.
Another data set deals with T. b. brucei (Squib-427). Put plainly: microbe, parasite or virus in culture. The conditions noted are these: Trypanosoma brucei, RHODESIENSE

Regarding `COc1ccc(C(=O)NC2COC2)cc1S(=O)(=O)N(Cc1ccc(F)cc1)Cc1ccc(F)cc1` [Compound 23], the microsomal CLint at 0.5 μM was found to be 178 µL/min/mg in “in vitro [1]” and 395 µL/min/mg in “in vitro [3]”. In addition, the IC50 in data set [2] is above 64.6 µM; in data set [5] it was 8.51 µM; in data set [8], 0.794 µM. The “Area% Human” value in data set [4] came out at 84.9%. For the same compound, in data set [6], the “Area% Mouse” value came to 89.1%. The compound also came in with an IC50 at 120 h in “in vitro [7]” above 64.6 µM. The compound also gave a chromatographic logD in “physchem” of 4.

With `CC[C@H](Cc1ccccc1)[S+]([O-])c1ccccc1OC` (stereo partly shown) [DNDI0003362002], the IC50 in data set [9] is 30.8 µM; in data set [11] (read-out: L. infantum MHOM/MA(BE)/67/ITMAP263 intracellular amastigotes IC50) it was 35.3 µM; in [12], above 64 µM. For the same compound, the “SI (vs PMM)” value in data set [10] is given as 2. The “L. Inf. pIC50” value in [11] (from L. infantum intracellular amastigote IC50) is given as 4.45. In addition, the “HLM CLint” value in data set [13] came out at 390 µL/min/mg. Besides, in data set [14], the eLogD is reported as 3.7. The same compound yielded a CC50 in the data set with MRC-5SV2 cells above 64 µM. Moreover, the “MLM CLint” value in [15] came out at 3623 µL/min/mg.

On to `Cc1ccc(C(=O)Nc2ccc(S(=O)(=O)O)c3cc(S(=O)(=O)O)cc(S(=O)(=O)O)c23)cc1NC(=O)c1cccc(NC(=O)Nc2cccc(C(=O)Nc3cc(C(=O)Nc4ccc(S(=O)(=O)O)c5cc(S(=O)(=O)O)cc(S(=O)(=O)O)c45)ccc3C)c2)c1` [Suramin], for which the IC50 in the data set with T. b. brucei (Squib-427) was around 0.05 µM.
